Test results taken from BindingDB's records for doi:10.1111/cbdd.12796 (Fudan University, 2016).
Values joined by “and” are separate entries in the source; they are usually repeats but may differ in a detail not shown here. Equal values may be shown once.

Tests used:
[1] = biological target: T1, D(1A) dopamine receptor (Homo sapiens, UniProt P21728); assay: Competitive Binding Assays
[2] = biological target: D(2) dopamine receptor (Homo sapiens, UniProt P14416); assay: Competitive Binding Assays
[3] = biological target: D(3) dopamine receptor (Homo sapiens, UniProt P35462); assay: Competitive Binding Assays
[4] = biological target: T1, D(1A) dopamine receptor; assay: D1R Functional Assay; details: pH 7.5

T1 sequence (P21728 whole entry): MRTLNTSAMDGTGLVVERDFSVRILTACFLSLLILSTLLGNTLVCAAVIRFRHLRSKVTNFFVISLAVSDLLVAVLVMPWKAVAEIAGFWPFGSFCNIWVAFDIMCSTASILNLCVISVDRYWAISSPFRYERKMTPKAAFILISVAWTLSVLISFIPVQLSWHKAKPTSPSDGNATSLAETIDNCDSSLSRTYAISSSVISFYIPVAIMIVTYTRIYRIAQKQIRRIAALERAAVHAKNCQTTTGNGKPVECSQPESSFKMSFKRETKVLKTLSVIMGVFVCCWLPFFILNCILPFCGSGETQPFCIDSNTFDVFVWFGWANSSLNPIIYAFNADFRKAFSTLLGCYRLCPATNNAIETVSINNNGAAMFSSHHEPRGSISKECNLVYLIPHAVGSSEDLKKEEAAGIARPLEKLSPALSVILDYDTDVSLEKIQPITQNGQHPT
Chain of D(3) dopamine receptor (P35462 as listed by the source): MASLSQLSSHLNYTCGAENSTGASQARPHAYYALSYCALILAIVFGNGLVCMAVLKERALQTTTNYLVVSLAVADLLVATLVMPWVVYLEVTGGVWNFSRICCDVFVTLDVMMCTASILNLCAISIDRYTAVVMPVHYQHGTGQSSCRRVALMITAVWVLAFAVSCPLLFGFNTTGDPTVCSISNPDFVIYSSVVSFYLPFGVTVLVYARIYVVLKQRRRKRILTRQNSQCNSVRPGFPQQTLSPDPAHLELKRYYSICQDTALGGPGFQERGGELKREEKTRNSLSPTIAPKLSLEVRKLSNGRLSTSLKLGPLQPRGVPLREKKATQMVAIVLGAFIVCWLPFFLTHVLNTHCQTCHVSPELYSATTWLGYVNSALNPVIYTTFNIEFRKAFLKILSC
Chain of D(2) dopamine receptor (P14416 whole entry): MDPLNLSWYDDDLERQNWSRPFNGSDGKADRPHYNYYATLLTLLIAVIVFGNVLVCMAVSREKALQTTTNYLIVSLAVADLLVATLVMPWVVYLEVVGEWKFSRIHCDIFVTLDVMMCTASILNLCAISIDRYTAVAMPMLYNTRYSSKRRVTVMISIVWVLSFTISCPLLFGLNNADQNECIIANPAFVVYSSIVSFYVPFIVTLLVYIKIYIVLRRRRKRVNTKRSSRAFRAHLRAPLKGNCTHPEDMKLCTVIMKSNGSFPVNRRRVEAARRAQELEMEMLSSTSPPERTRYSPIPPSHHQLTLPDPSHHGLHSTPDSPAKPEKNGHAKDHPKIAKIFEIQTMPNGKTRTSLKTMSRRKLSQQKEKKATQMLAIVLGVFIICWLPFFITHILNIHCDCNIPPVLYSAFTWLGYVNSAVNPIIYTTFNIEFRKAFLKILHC

Ki [1] [nM] | Ki [2] | Ki [3] [nM] | IC50 [4] [nM] | SMILES
57.3 | 29.8 nM | 22 |  | COc1cc2c(cc1OC)C1Cc3ccc(OC)c(OC)c3CCN1CC2 (stereo not drawn) [2,3,10,11-tetramethoxy-5,6,8,9,14,14a-hexahydrobenzo[4,5]azepino[2,1-a]isoquinoline (15c)]
33.9 | 26.5 nM | 13.3 |  | COc1cc2c(cc1OC)CC1c3cc(OC)c(OC)cc3CCN1CC2 (stereo not drawn) [2,3,11,12-tetramethoxy-5,6,8,9,14,14a-hexahydrobenzo[4,5]azepino[2,1-a]isoquinoline (15a)]
30.3 | 84 nM | 284 | 33500 | COc1cc2c(cc1O)C1Cc3ccc(OC)c(OC)c3CCN1CC2 (stereo not drawn) [3,10,11-trimethoxy-5,6,8,9,14,14a-hexahydrobenzo[4,5]azepino[2,1-a]isoquinolin-2-ol (15d)]
474 | 52 nM | 73.7 |  | COc1cc2c(cc1OC(C)=O)C1Cc3ccc(OC)c(OC)c3CCN1CC2 (stereo not drawn) [3,10,11-trimethoxy-5,6,8,9,14,14a-hexahydrobenzo[4,5]azepino[2,1-a]isoquinolin-2-ylacetate (19)]
69.1 | 6.96 nM | 39.2 |  | COc1cc2c(cc1O)C1Cc3cc(OC)c(OC)cc3CCN1CC2 (stereo not drawn) [3,11,12-trimethoxy-5,6,8,9,14,14a-hexahydrobenzo[4,5]azepino[2,1-a]isoquinolin-2-ol (15b)]
 | 36.6 nM and 34.4 nM and 58.3 nM |  | 140 | COc1cc2c(cc1O)C1Cc3ccc(OC)c(O)c3CCN1CC2 (stereo not drawn) [3,11-dimethoxy-5,6,8,9,14,14a-hexahydrobenzo[4,5]azepino[2,1-a]isoquinoline-2,10-diol ((+)-15e)]
33.7 | 72.2 nM | 471 | 115000 | Oc1cc2c(cc1O)C1Cc3ccc(O)c(O)c3CCN1CC2 (stereo not drawn) [5,6,8,9,14,14a-hexahydrobenzo[4,5]azepino[2,1-a]isoquinoline-2,3,10,11-tetraol (18)]
60.3 | 4.26 nM | 27.3 |  | COc1ccc2c(c1OC)CCN1CCc3cc4c(cc3C1C2)OCO4 (stereo not drawn) [Hexahydrobenzo[4,5]azepino[2,1-a]isoquinoline, 16]
220 | 39.2 nM | 61.2 |  | COc1ccc2c(c1OC)CCN1CCc3cc(O)c(O)cc3C1C2 (stereo not drawn) [Hexahydrobenzo[4,5]azepino[2,1-a]isoquinoline, 17]
